pIC50: −log10 of the molar value. Where two headings read alike, the source gives them in different places.
Molecular target: MTH1 (Homo sapiens, UniProt P36639)
Test: MTH1 enzymatic assay (malachite green, coupled to pyrophosphatase)
Type: biochemical
[1] = dGTP 100 μM, MTH1 6 nM, 96- or 384-well format, read-out: IC50

SMILES	pIC50 [1]	pIC50
Cc1cccc(-c2cc(NCCNc3nc(Br)ns3)nc(N)n2)c1C [Example 398, 4-N-{2-[(3-Bromo-1,2,4-thiadiazol-5-yl)amino]ethyl}-6-(2,3-dimethylphenyl)pyrimidine-2,4-diamine]	> 6.70	
Cc1cccc(-c2cc(NCCc3nnc(-c4ccc(F)cc4)o3)nc(N)n2)c1C [Example 400, 6-(2,3-Dimethylphenyl)-4-N-{2-[5-(4-fluorophenyl)-1,3,4-oxadiazol-2-yl]ethyl}pyrimidine-2,4-diamine]	> 6.70	
Cc1cccc(-c2cc(NCCNS(=O)(=O)c3ccc(S(C)(=O)=O)cc3)nc(N)n2)c1C [Example 401, N-(2-{[2-Amino-6-(2,3-dimethylphenyl)pyrimidin-4-yl]amino}ethyl)-4-methanesulfonylbenzene-1-sulfonamide]	> 6.70	
Cc1nc(CCNc2cc(-c3cccc(Cl)c3C)nc(N)n2)n[nH]1 [Example 412, 6-(3-chloro-2-methylphenyl)-4-N-[2-(5-methyl-1H-1,2,4-triazol-3-yl)ethyl]pyrimidine-2,4-diamine]	> 6.70	
Cc1c(Cl)cccc1-c1cc(NCCc2ccc(S(=O)(=O)N(C)C)cc2)nc(N)n1 [Example 414, 4-(2-{[2-amino-6-(3-chloro-2-methylphenyl)pyrimidin-4-yl]amino}ethyl)-N,N-dimethylbenzene-1-sulfonamide]	> 6.70	
Cc1cccc(-c2cc(NC3(Cc4ccc(Cl)cc4)CC3)nc(N)n2)c1C [Example 417, 4-N-{1-[(4-Chlorophenyl)methyl]cyclopropyl}-6-(2,3-dimethylphenyl)pyrimidine-2,4-diamine]	> 6.70	
[2H]C([2H])([2H])Nc1cc(-c2cccc(Cl)c2Cl)nc(N)n1 [Example 421, 6-(2,3-dichlorophenyl)-4-N-(^2H3)methylpyrimidine-2,4-diamine]		> 6.70
Cc1c(F)ccc(-c2cc(NCCc3ccc(S(N)(=O)=O)cc3)nc(N)n2)c1C [Example 425, 4-(2-{[2-amino-6-(4-fluoro-2,3-dimethylphenyl)pyrimidin-4-yl]amino}ethyl)benzene-1-sulfonamide]	> 6.70	
Cc1ccc(Cl)cc1-c1cc(NCCc2ccc(S(N)(=O)=O)cc2)nc(N)n1 [Example 427, 4-(2-{[2-amino-6-(5-chloro-2-methylphenyl)pyrimidin-4-yl]amino}ethyl)benzene-1-sulfonamide]	> 6.70	
Cc1c(-c2cc(NCCc3ccc(S(C)(=O)=O)cc3)nc(N)n2)ccc(Cl)c1Cl [Example 431, 6-(3,4-dichloro-2-methylphenyl)-4-N-[2-(4-methanesulfonylphenyl)ethyl]pyrimidine-2,4-diamine]	> 6.70	
Nc1nc(NCCc2ccc(S(N)(=O)=O)cc2)cc(-c2ccc(F)cc2Cl)n1 [Example 433, 4-(2-{[2-amino-6-(2-chloro-4-fluorophenyl)pyrimidin-4-yl]amino}ethyl)benzene-1-sulfonamide]	> 6.70	
Cc1cc(-c2cc(NCCc3ccc(S(N)(=O)=O)cc3)nc(N)n2)ccc1F [Example 435, 4-(2-{[2-amino-6-(4-fluoro-3-methylphenyl)pyrimidin-4-yl]amino}ethyl)benzene-1-sulfonamide]	> 6.70	
Cc1c(C#N)cccc1-c1cc(NC2CC2)nc(N)n1 [Example 437, 3-[2-amino-6-(cyclopropylamino)pyrimidin-4-yl]-2-methylbenzonitrile]	> 6.70	
C#CCNc1cc(-c2cccc(Cl)c2Cl)nc(N)n1 [Example 438, 6-(2,3-dichlorophenyl)-4-N-(prop-2-yn-1-yl)pyrimidine-2,4-diamine]	> 6.70	
Cc1cccc(-c2cc(NCCc3c(C)n[nH]c3C)nc(N)n2)c1C [Example 440, 4-N-[2-(3,5-dimethyl-1H-pyrazol-4-yl)ethyl]-6-(2,3-dimethylphenyl)pyrimidine-2,4-diamine]	> 6.70	
Cc1cccc(-c2cc(NCCNc3ccc(Cl)nn3)nc(N)n2)c1C [Example 441, 4-N-{2-[(6-chloropyridazin-3-yl)amino]ethyl}-6-(2,3-dimethylphenyl)pyrimidine-2,4-diamine]	> 6.70	
Cc1cccc(-c2cc(NCCNc3cc(C#N)ccn3)nc(N)n2)c1C [Example 442, 2-[(2-{[2-amino-6-(2,3-dimethylphenyl)pyrimidin-4-yl]amino}ethyl)amino]pyridine-4-carbonitrile]	> 6.70	
Cc1ccc(NCCNc2cc(-c3cccc(C)c3C)nc(N)n2)cc1F [Example 448, 6-(2,3-dimethylphenyl)-4-N-{2-[(3-fluoro-4-methylphenyl)amino]ethyl}pyrimidine-2,4-diamine]	> 6.70	
Cc1cccc(-c2cc(NCCNc3ccc(Cl)c(Cl)c3)nc(N)n2)c1C [Example 449, 4-N-{2-[(3,4-dichlorophenyl)amino]ethyl}-6-(2,3-dimethylphenyl)pyrimidine-2,4-diamine]	> 6.70	
Cc1cccc(-c2cc(NCCNc3ccc(Cl)cn3)nc(N)n2)c1C [Example 450, 4-N-{2-[(5-chloropyridin-2-yl)amino]ethyl}-6-(2,3-dimethylphenyl)pyrimidine-2,4-diamine]	> 6.70	
Cc1cccc(-c2cc(NCCNc3ccc(S(N)(=O)=O)cc3)nc(N)n2)c1C [Example 452, 4-[(2-{[2-amino-6-(2,3-dimethylphenyl)pyrimidin-4-yl]amino}ethyl)amino]benzene-1-sulfonamide]	> 6.70	
Cc1c(Cl)cccc1-c1cc(NCCc2ccc(Cl)cc2)nc(N)n1 [Example 461, 6-(3-chloro-2-methylphenyl)-4-N-[2-(4-chlorophenyl)ethyl]pyrimidine-2,4-diamine]	> 6.70	
CNc1cc(-c2ccsc2)nc(N)n1 [Example 463, 4-N-methyl-6-(thiophen-3-yl)pyrimidine-2,4-diamine]	> 6.70	
CNc1cc(-c2cc(C)cs2)nc(N)n1 [Example 464, 4-N-methyl-6-(4-methylthiophen-2-yl)pyrimidine-2,4-diamine]	> 6.70	

Other lines, results leading:

pIC50 [1]	pIC50	SMILES
> 6.70		Cc1cccc(-c2cc(NCCc3cccc(Cl)c3)nc(N)n2)c1C [Example 341, 4-N-[2-(3-Chlorophenyl)ethyl]-6-(2,3-dimethylphenyl)pyrimidine-2,4-diamine]
> 6.70		Cc1cccc(-c2cc(NCCCn3ccnc3)nc(N)n2)c1C [Example 342, 6-(2,3-Dimethylphenyl)-4-N-[3-(1H-imidazol-1-yl)propyl]pyrimidine-2,4-diamine]
> 6.70		Cc1cccc(-c2cc(NCCc3ccc(F)cc3)nc(N)n2)c1C [Example 344, 6-(2,3-Dimethylphenyl)-4-N-[2-(4-fluorophenyl)ethyl]pyrimidine-2,4-diamine]
> 6.70		Cc1cccc(-c2cc(NCCc3scnc3C)nc(N)n2)c1C [Example 352, 6-(2,3-Dimethylphenyl)-4-N-[2-(4-methyl-1,3-thiazol-5-yl)ethyl]pyrimidine-2,4-diamine]
> 6.70		Cc1cccc(-c2cc(NCC3CCCN(c4ccccn4)C3)nc(N)n2)c1C (centres unmarked) [Example 355, 6-(2,3-Dimethylphenyl)-4-N-{[1-(pyridin-2-yl)piperidin-3-yl]methyl}pyrimidine-2,4-diamine]
> 6.70		Cc1cccc(-c2cc(NCc3cnn(-c4ccccc4)n3)nc(N)n2)c1C [Example 356, 6-(2,3-Dimethylphenyl)-4-N-[(2-phenyl-2H-1,2,3-triazol-4-yl)methyl]pyrimidine-2,4-diamine]
> 6.70		Cc1cccc(-c2cc(NCCCNS(=O)(=O)c3ccc(Cl)cc3)nc(N)n2)c1C [Example 357, N-(3-{[2-Amino-6-(2,3-dimethylphenyl)pyrimidin-4-yl]amino}propyl)-4-chlorobenzene-1-sulfonamide]
> 6.70		Cc1cccc(-c2cc(NCCCNC(=O)Nc3ccc(F)c(F)c3)nc(N)n2)c1C [Example 362, 3-(3-{[2-Amino-6-(2,3-dimethylphenyl)pyrimidin-4-yl]amino}propyl)-1-(3,4-difluorophenyl)urea]
> 6.70		Cc1cc2cc(CNc3cc(-c4cccc(C)c4C)nc(N)n3)ccc2[nH]1 [Example 364, 6-(2,3-Dimethylphenyl)-4-N-[(2-methyl-1H-indol-5-yl)methyl]pyrimidine-2,4-diamine]
> 6.70		Cc1cccc(-c2cc(NCCCCNC(=O)OC(C)(C)C)nc(N)n2)c1C [Example 370, tert-Butyl N-(4-{[2-amino-6-(2,3-dimethylphenyl)pyrimidin-4-yl]amino}butyl)-carbamate]
> 6.70		Cc1cccc(-c2cc(NCCCCCNC(=O)OC(C)(C)C)nc(N)n2)c1C [Example 371, tert-Butyl N-(5-{[2-amino-6-(2,3-dimethylphenyl)pyrimidin-4-yl]amino}pentyl)-carbamate]
> 6.70		Cc1cccc(-c2cc(NCCCNS(=O)(=O)c3ccc(S(C)(=O)=O)cc3)nc(N)n2)c1C [Example 375, N-(3-{[2-Amino-6-(2,3-dimethylphenyl)pyrimidin-4-yl]amino}propyl)-4-methanesulfonylbenzene-1-sulfonamide]
> 6.70		CC(=O)Nc1ccc(S(=O)(=O)NCCCNc2cc(-c3cccc(C)c3C)nc(N)n2)cc1 [Example 382, N-{4-[(3-{[2-Amino-6-(2,3-dimethylphenyl)pyrimidin-4-yl]amino}propyl)sulfamoyl]-phenyl}acetamide]
> 6.70		COc1ccc(S(=O)(=O)NCCNc2cc(-c3cccc(C)c3C)nc(N)n2)cc1 [Example 385, N-(2-{[2-Amino-6-(2,3-dimethylphenyl)pyrimidin-4-yl]amino}ethyl)-4-methoxybenzene-1-sulfonamide]
> 6.70		Cc1cccc(-c2cc(NCCCNS(=O)(=O)c3cc(Cl)c(Cl)s3)nc(N)n2)c1C [Example 388, N-(3-{[2-Amino-6-(2,3-dimethylphenyl)pyrimidin-4-yl]amino}propyl)-4,5-dichlorothiophene-2-sulfonamide]
> 6.70		Cc1cccc(-c2cc(NCCNc3nc4ccccc4o3)nc(N)n2)c1C [Example 393, 4-N-{2-[(1,3-Benzoxazol-2-yl)amino]ethyl}-6-(2,3-dimethylphenyl)pyrimidine-2,4-diamine]
> 6.70		Cc1cccc(-c2cc(NC(C)CCc3ccccc3)nc(N)n2)c1C (centres unmarked) [Example 394, 6-(2,3-Dimethylphenyl)-4-N-(4-phenylbutan-2-yl)pyrimidine-2,4-diamine]

Reference: patent US10632125B2, “MTH1 inhibitors for treatment of inflammatory and autoimmune conditions” (THOMAS HELLEDAYS STIFTELSE FÖR MEDICINSK FORSKNING, priority 2014, dated 2020)
